The results in this text go back to paper PMC7217877, “N-AS-triggered SPMs are direct regulators of microglia in a model of Alzheimer’s disease” (Nature Communications, 2020).

Where “and” joins values, the source holds several entries; their conditions need not be identical. Equal values may be shown once. Read-outs that look alike come from different tables or passages of the source.

One data set deals with microglia. Description: acetyl-CoA level in primary cells (assay kit). The class given is cell-based, C57BL/6 mice. To be noted: Ab 10mM, replicates. The procedure:
To confirm the generation and roles of N-AS in neurons, cells from E18 C57BL/6 mice were prepared as previously described. Cortices were dissected and then dissociated followed by incubation in papain (Worthington) at 37 °C for 15 min. Neurons were plated on poly-L-lysine-coated coverslips with neuronal culture medium, serum-free Neurobasal medium (Gibco) containing 2% B27 supplements (Gibco), 1 mM Glutamax supplement (Gibco), and 100 U ml^−1 streptomycin/ 100 U ml^−1 penicillin (Gibco) at 37 °C in a humidified atmosphere of 5% CO2. Aβ 1–42 (10 μM, 24 h, Invitrogen, 03112) was exposed to neurons and the cells were analyzed for the generation and roles of N-AS. Primary astrocyte cultures were prepared from C57BL/6 mice as described previously. In brief, after removal of the meninges, postnatal day 7 (P7) mouse brain tissues were minced and incubated in a rocking water bath at 37 °C for 30 min in the presence of 0.25% trypsin-EDTA (Sigma-Aldrich). Enzyme-digested dissociated cells were triturated with astrocyte-specific medium (DMEM/F12 containing 10% FBS and 1% penicillin-streptomycin) and centrifuged at 155×g for 8 min. […] The human microglia treated with Aβ 1–42 and/or zileuton was incubated with N-AS (2.5 μM, 2 h, Sigma-Aldrich, 01912), and were analyzed for the generation and roles of N-AS. […]

A short description of data set [1]: single-dose brain PK and brain distribution. The class given is in vivo, C57BL/6 mice. To be noted: mouse; for Kp / MRT / half-life / AUC(0-inf) / AUC(0-t): C57BL/6, brain; for AUC(0-inf): read-out: AUCinf (Brain); for AUC(0-t): read-out: AUClast (Brain). The procedure: C57BL/6 mice were administered N-AS (Sigma-Aldrich, 01912) at doses of 1 mg kg^−1 (i.v.) or 10 mg kg^−1 (p.o.). Venous blood samples were collected at 5, 15, and 30 min, and 1, 2, 4, 8, and 24 h postdose. A 30 μl of plasma was separated from whole blood by centrifugation and stored at −80 °C until analysis. Also, brain samples were collected at 1, 2, 4, and 24 h postdose and heart, liver, and kidney samples were collected at 24 h postdose, thoroughly rinsed with physiological saline and weighed. Twenty percentage of tissue homogenates were prepared by homogenizing the tissue samples with four volumes of saline. A 30 μl aliquot of plasma or a 50 μl aliquot of tissue homogenates were deproteinized by addition of 200 μl cold methanol (containing naringenin as internal standard at 20 ng ml^−1) and centrifuged at 15,974×g for 10 min. A 10 μl aliquot of the supernatant was injected into Agilent 6470 LC-MS/MS system. Separation was performed on a Synergy Polar RP column (4 μm particle size, 2.0 mm ×150 mm, Phenomenex) using a mobile phase that consisted of methanol and water (85:15, v/v) with 0.1% formic acid at a flow rate of 0.2 ml min^−1. Quantification was carried out using multiple reaction monitoring (MRM) at m/z 340.3→263.3 for N-AS and m/z 271.1→151.3 for naringenin (internal standard) in negative ionization mode and collision energy of 20 eV. p, and relative oral BA values were calculated as follows: BA% = AUCp.o. normalized by p.o. dose/AUCi.v. normalized by i.v. dose × 100.

Take “Ab: Aβ 1–42 (Invitrogen, 03112) used to induce an AD environment in cells”: in the data set with microglia, the “acetyl-CoA (Fig 3e)” value was 0.5557 and 0.2327 and 0.5301 and 0.5514 and 0.536 and 0.6185.

As a reminder, the MRT is a mean duration of stay, worked out from the concentration-time curve. One may read the half-life as the time needed for the level to fall by half in the phase considered. As for `CCCCCCCCCCCCC/C=C/[C@@H](O)[C@H](CO)NC(C)=O` [N-AS, N-((2S,3R,E)-1,3-Dihydroxyoctadec-4-en-2-yl)acetamide], in data set [1] (iv, i.v. 1 mg/kg), the Kp stood at 2.16, the MRT was found to be 6.94 ± 0.62 h, the half-life was 379 ± 22.8 min and the AUC(0-inf) is 1440 ± 228 ng·h/mL. For the same molecule, the AUC(0-t) in data set [1] (iv, i.v. 1 mg/kg) was 1340 ± 224 ng·h/mL. In data set [1] (po, p.o. 10 mg/kg), the Kp turned out to be 3.18, the MRT worked out at 8.64 ± 1.01 h, the half-life was 1320 ± 364 min and the AUC(0-inf) worked out at 1750 ± 362 ng·h/mL. Also, the AUC(0-t) in data set [1] (po, p.o. 10 mg/kg) worked out at 895 ± 60.5 ng·h/mL. In data set [1] (i.v. 1 mg/kg), the “Cmax (Brain)” value was found to be 165.18 ± 18.42 ng/mL. Moreover, the “Cmax (Brain)” value in data set [1] (p.o. 10 mg/kg) was determined as 90.27 ± 2.95 ng/mL.
